According to US10149876B2, “Tripterygium wilfordii extracts to overcome chemotherapy resistance” (WESTERN UNIVERSITY OF HEALTH SCIENCES, priority 2012, dated 2018):
Several values for one entry are separate records, joined by “and”; a condition that tells them apart may be missing. Equal entries are not always repeated. Where two headings read alike, the source gives them in different places.

Test system: BT474-TxR cells
Assay: SRB cell viability assay, Herceptin-resistant BT474-TxR cells
Assay type: cell-based, human
Conditions: for viability at 0.001 µM / viability at 0.02 µM / viability at 0.067 µM / viability at 0.2 µM / viability at 0.67 µM / viability at 2 µM / viability at 6.7 µM / viability at 20 µM / IC50: Homo sapiens; for viability at 0.001 µM / viability at 0.02 µM / viability at 0.067 µM / viability at 0.2 µM / viability at 0.67 µM / viability at 2 µM / viability at 6.7 µM / viability at 20 µM / mean A at 565 nm: 72 h; for IC50: lapatinib, BT474-TxR
Procedure: PC3-TxR cells were plated into sterile, F-bottom Cellstar® 96 well cell culture plates with lids (Cat #655180, Purchased from Greiner Bio-one, Monroe, N.C.) by placing into each well, 100 μl of medium containing 3000 cells in RPMI 1640 supplemented with 10% fetal bovine serum (Thermo Scientific, Logan, Utah) and a solution of penicillin (100 U/ml) and streptomycin (100 μg/ml) (Life Technologies Grand Island, N.Y.). The cells were at passage 52 at the time of plating. Triplicate wells were assigned to each experimental condition tested, and a 24 hour recovery period for the cells following the seeding of the wells was allowed. During the recovery period, the cells were incubated at 37° C. and 5% CO2.
The LGT-E was prepared by adding an appropriate amount of LGT-E powder to DMSO to form a 500 mg/ml stock solution. The stock solution was alternately vortexed and sonicated until the LGT-E powder went into solution. The stock solution was diluted in RPMI 1640 medium (Mediatech, Manassas, Va., or Life Technologies Grand Island, NY) to reach the desired concentrations of LGT-E (e.g., 12, 25, or 60 μg/ml).
Pretreatment of the cells with LGT-E was carried out by aspirating the media from the wells, followed by adding 50 μl of LGT-E solution containing concentrations of either 12 or 25 μg/ml of LGT-E solution and incubation of the cells for two hours under conditions of 37° C. and 5% CO2.
Media was aspirated from each well, and replaced with a 10% solution of cold trichloroacetic acid (TCA) (Cat #: T6399, purchased from Sigma-Aldrich), and incubated for one hour at 4° C. After the TCA incubation, the TCA solution was aspirated, and the cells were washed five times with tap water. After removing the last wash, the plates were left with lids off at room temperature until the surfaces were dry, which took one to two hours. Then 50 μl of a 0.4% solution of sul-forhodamine B (SRB) sodium salt (Cat #: S9012, purchased from Sigma-Aldrich) was added to each well and the plates were incubated at room temperature for 20 to 30 minutes. Afterwards, the wells were washed five times with a 1% acetic acid solution in 10 mM TRIS base (Cat#: 161-0719, purchased from Bio-Rad Laboratories, Hercules, Calif.). The plates were subsequently left to dry for several hours or overnight. SRB that remained in the dried wells was solubilized by adding 100 μl of SRB solubilization solution (10 mM TRIS base) to each well, and placing the plates either on a gently-moving shaker or letting the plates remain stationary at room temperature until the SRB dissolves, which takes about five to ten minutes. The amount of SRB in each well, which correlated directly to the number of living cells at fixation, was determined spectrophotometrically at an absorbance of 565 nm by a microplate reader.

- IC50 (line of LGT-E 25 μg/ml, read-out: IC50 of drug when cells treated with drug only): 11 µM and 6.39 µg/mL
SMILES: CS(=O)(=O)CCNCc1ccc(-c2ccc3ncnc(Nc4ccc(OCc5cccc(F)c5)c(Cl)c4)c3c2)o1 [lapatinib]
- viability at 0.001 µM (Lapatinib 0.001 μM, no LGT-E pre-treatment (control to Table 28)): 100%
- viability at 0.001 µM (Lapatinib 0.001 μM, no LGT-E pre-treatment (control to Table 30)): 100%
- viability at 0.001 µM (Lapatinib 0.001 μM, pre-treated with 25 μg/ml LGT-E): 100%
- viability at 0.001 µM (Lapatinib 0.001 μM, pre-treated with […] LGT-E): 100%
- viability at 0.02 µM (Lapatinib 0.02 μM, no LGT-E pre-treatment (control to Table 28)): 97.3%
- viability at 0.02 µM (Lapatinib 0.02 μM, no LGT-E pre-treatment (control to Table 30)): 82.6%
- viability at 0.02 µM (Lapatinib 0.02 μM, pre-treated with 25 μg/ml LGT-E): 85.8%
- viability at 0.02 µM (Lapatinib 0.02 μM, pre-treated with […] LGT-E): 94%
- viability at 0.067 µM (Lapatinib 0.067 μM, no LGT-E pre-treatment (control to Table 28)): 97.6%
- viability at 0.067 µM (Lapatinib 0.067 μM, no LGT-E pre-treatment (control to Table 30)): 91.8%
- viability at 0.067 µM (Lapatinib 0.067 μM, pre-treated with 25 μg/ml LGT-E): 77.3%
- viability at 0.067 µM (Lapatinib 0.067 μM, pre-treated with […] LGT-E): 91.3%
- viability at 0.2 µM (Lapatinib 0.2 μM, no LGT-E pre-treatment (control to Table 28)): 84.7%
- viability at 0.2 µM (Lapatinib 0.2 μM, no LGT-E pre-treatment (control to Table 30)): 76.9%
- viability at 0.2 µM (Lapatinib 0.2 μM, pre-treated with 25 μg/ml LGT-E): 67.9%
- viability at 0.2 µM (Lapatinib 0.2 μM, pre-treated with […] LGT-E): 70.9%
- viability at 0.67 µM (Lapatinib 0.67 μM, no LGT-E pre-treatment (control to Table 28)): 68.7%
- viability at 0.67 µM (Lapatinib 0.67 μM, no LGT-E pre-treatment (control to Table 30)): 70.5%
- viability at 0.67 µM (Lapatinib 0.67 μM, pre-treated with 25 μg/ml LGT-E): 57.4%
- viability at 0.67 µM (Lapatinib 0.67 μM, pre-treated with […] LGT-E): 59.9%
- viability at 2 µM (Lapatinib 2 μM, no LGT-E pre-treatment (control to Table 28)): 65.2%
- viability at 2 µM (Lapatinib 2 μM, no LGT-E pre-treatment (control to Table 30)): 60.6%
- viability at 2 µM (Lapatinib 2 μM, pre-treated with 25 μg/ml LGT-E): 50.4%
- viability at 2 µM (Lapatinib 2 μM, pre-treated with […] LGT-E): 53.5%
- viability at 6.7 µM (Lapatinib 6.7 μM, no LGT-E pre-treatment (control to Table 28)): 59.4%
- viability at 6.7 µM (Lapatinib 6.7 μM, no LGT-E pre-treatment (control to Table 30)): 55.1%
- viability at 6.7 µM (Lapatinib 6.7 μM, pre-treated with 25 μg/ml LGT-E): 37.1%
- viability at 6.7 µM (Lapatinib 6.7 μM, pre-treated with […] LGT-E): 46.3%
- viability at 20 µM (Lapatinib 20 μM, no LGT-E pre-treatment (control to Table 28)): 52.3%
- viability at 20 µM (Lapatinib 20 μM, no LGT-E pre-treatment (control to Table 30)): 43.8%
- viability at 20 µM (Lapatinib 20 μM, pre-treated with 25 μg/ml LGT-E): 24.9%
- viability at 20 µM (Lapatinib 20 μM, pre-treated with […] LGT-E): 40.6%
- IC50 (LGT-E 25 μg/ml pre-treatment, read-out: IC50 of drug when cells pre-treated with Chemosensitizing Agent before drug treatment): 2 µM and 1.16 µg/mL
- mean A at 565 nm (Lapatinib 0.001 μM, no LGT-E pre-treatment (control to Table 28), background = 0.045): 1.135
- mean A at 565 nm (Lapatinib 0.001 μM, no LGT-E pre-treatment (control to Table 30), background = 0.047): 1.176
- mean A at 565 nm (Lapatinib 0.001 μM, pre-treated with 25 μg/ml LGT-E, background = 0.047): 0.957
- mean A at 565 nm (Lapatinib 0.001 μM, pre-treated with […] LGT-E, background = 0.045): 0.997
- mean A at 565 nm (Lapatinib 0.02 μM, no LGT-E pre-treatment (control to Table 28), background = 0.045): 1.104
- mean A at 565 nm (Lapatinib 0.02 μM, no LGT-E pre-treatment (control to Table 30), background = 0.047): 0.971
- mean A at 565 nm (Lapatinib 0.02 μM, pre-treated with 25 μg/ml LGT-E, background = 0.047): 0.821
- mean A at 565 nm (Lapatinib 0.02 μM, pre-treated with […] LGT-E, background = 0.045): 0.937
- mean A at 565 nm (Lapatinib 0.067 μM, no LGT-E pre-treatment (control to Table 30), background = 0.047): 1.079
- mean A at 565 nm (Lapatinib 0.067 μM, pre-treated with 25 μg/ml LGT-E, background = 0.047): 0.740
- mean A at 565 nm (Lapatinib 0.067 μM, pre-treated with […] LGT-E, background = 0.045): 0.911
- mean A at 565 nm (Lapatinib 0.2 μM, no LGT-E pre-treatment (control to Table 28), background = 0.045): 0.961
- mean A at 565 nm (Lapatinib 0.2 μM, no LGT-E pre-treatment (control to Table 30), background = 0.047): 0.905
- mean A at 565 nm (Lapatinib 0.2 μM, pre-treated with 25 μg/ml LGT-E, background = 0.047): 0.650
- mean A at 565 nm (Lapatinib 0.2 μM, pre-treated with […] LGT-E, background = 0.045): 0.707
- mean A at 565 nm (Lapatinib 0.67 μM, no LGT-E pre-treatment (control to Table 28), background = 0.045): 0.780
- mean A at 565 nm (Lapatinib 0.67 μM, no LGT-E pre-treatment (control to Table 30), background = 0.047): 0.829
- mean A at 565 nm (Lapatinib 0.67 μM, pre-treated with 25 μg/ml LGT-E, background = 0.047): 0.549
- mean A at 565 nm (Lapatinib 0.67 μM, pre-treated with […] LGT-E, background = 0.045): 0.598
- mean A at 565 nm (Lapatinib 2 μM, no LGT-E pre-treatment (control to Table 28), background = 0.045): 0.739
- mean A at 565 nm (Lapatinib 2 μM, no LGT-E pre-treatment (control to Table 30), background = 0.047): 0.712
- mean A at 565 nm (Lapatinib 2 μM, pre-treated with 25 μg/ml LGT-E, background = 0.047): 0.482
- mean A at 565 nm (Lapatinib 2 μM, pre-treated with […] LGT-E, background = 0.045): 0.533
- mean A at 565 nm (Lapatinib 6.7 μM, no LGT-E pre-treatment (control to Table 28), background = 0.045): 0.674
- mean A at 565 nm (Lapatinib 6.7 μM, no LGT-E pre-treatment (control to Table 30), background = 0.047): 0.648
- mean A at 565 nm (Lapatinib 6.7 μM, pre-treated with 25 μg/ml LGT-E, background = 0.047): 0.355
- mean A at 565 nm (Lapatinib 6.7 μM, pre-treated with […] LGT-E, background = 0.045): 0.461
- mean A at 565 nm (Lapatinib 20 μM, no LGT-E pre-treatment (control to Table 28), background = 0.045): 0.594
- mean A at 565 nm (Lapatinib 20 μM, no LGT-E pre-treatment (control to Table 30), background = 0.047): 0.515
- mean A at 565 nm (Lapatinib 20 μM, pre-treated with 25 μg/ml LGT-E, background = 0.047): 0.239
- mean A at 565 nm (Lapatinib 20 μM, pre-treated with […] LGT-E, background = 0.045): 0.405
